Source: patent US7615361B2, “Toxicity screening methods” (Ceetox, Inc., priority 2006, dated 2009)

Tests used:
H4IIE cells = test: Cell number (propidium iodide); format: cell-based, rat; conditions: rat, 24 h
Procedure, shortened: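 Rat hepatoma H4IIE cells exposed to compound in complete medium, then lysed with Triton X-100 containing propidium iodide; fluorescence read at 540/610 nm. Blank-subtracted RFU expressed as percent of untreated control cells, means of n=3-7.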

rat cardiomyocytes = test: Intracellular total glutathione (GSH); format: cell-based; conditions: rat cardiomyocytes, after 3 hr
Procedure, shortened: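 Intracellular total glutathione serves as an oxidative-stress marker in neonatal rat cardiomyocytes exposed to compound in vitro. Cells were harvested for biochemical analysis, and values are means of each exposure group (n=3-7).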

C32 cells = test: Predicted Ctox from Tox-Panel; format: cell-based, human; conditions: C32, 24 HR
Experimental: Studies such as these indicate that a preferred concentration for setting Ctox is the highest concentration at which there is no observed effect on any of the indicators being measured in the cluster analysis, especially a 24-hour cluster analysis. […] It will be apparent that 24 hour assays are more time-effective, and consequently, the 24 hour NOEL/Ctox represents a preferred data point to select as Ctox in a CATS assay. It will also be apparent that, with further time studies, it may be possible to select an equally suitable Ctox at other CATS assay time points (e.g., between 24 and 72 hours, or less than 24 hours).
In certain embodiments, the predicting comprises performing concentration response analyses of measurements from at least three separate assays that are employed in the cluster analysis. For example, in the cell health cluster, such predicting will involve monitoring the concentration response effect of the compound on a first health indicator which monitors cellular replication, a second cell health indicator which monitors mitochondrial function, and a third cell health indicator which monitors membrane integrity. Of course, it is understood that fourth, fifth, sixth or more cell health indicators also may be employed. From these concentration response analyses, the highest concentration of the chemical compound at which a measurable toxic effect of the chemical compound is not observable, i.e. NOEL, is determined and the Ctox is identified as the concentration that correlates to the NOEL. In choosing the concentrations of the compound for analysis, one of skill in the art should devise a dose response regimen which is selected to provide an indication of cell health at concentrations of at least two concentration values higher than the Ctox concentration.
The results are summarized in Tables 14-17 and in FIGS. 83-102. Table 14 compares the test compound TC50 values for each assay endpoint. Test compounds are rank-ordered from most to least toxic based on their TC50 values and overall shape of the response curves. The Ctox value, or estimated sustained blood concentration where toxicity would first be expected to occur in a rat 14-day repeated dose study, is also included in this table. Negative and positive controls are included with every run. Assay response is continually monitored to assure reliable results. […] Table 15 summarizes oxidative stress and apoptosis data, Table 16 summarizes the solubility data, and Table 17 provides information on interaction with PgP.
The Ctox value was developed using 24 hr in vitro (H4IIE) toxicity data and was validated by retrospectively evaluating compounds across different classes of drugs in 14-day rat studies in which compounds were administered on a daily basis and pharmacokinetic data was available. […] Thus, Ctox values are only determined for the 24 hr in vitro results. In this example, Ctox values could not be estimated due to low toxicity in most of the cell lines.

NRK cells = test: Caspase 3 activity (apoptosis); format: cell-based, rat
Experimental: Caspase 3 Procedure: Caspase 3 activity was determined using a caspase substrate (DEVD, Asp-Glu-Val-Asp) labeled with a fluorescent molecule, 7-Amino4-methylcoumarin (AMC). Caspase 3 cleaves the tetrapeptide between D and AMC, thus releasing the fluorogenic […] AMC. Following the test article exposure to cells in 96-well plates, medium was aspirated from plates and PBS added to each well. Plates were stored at −80° C. to lyse cells and store samples until further analysis. On the day of analysis, plates were removed from freezer and thawed. Caspase buffer with fluorescent substrate was added to each well and incubated at room temperature for 1 hr. AMC release was measured in a spectrofluorometer at an excitation wavelength of 360 nm and an emission wavelength of 460 nm. Values are expressed as relative fluorescent units (RFU).
Caspase Activity: After sample plates were completely thawed, the caspase substrate buffer mix was added to each plate. Plates were incubated at room temperature for 1hr, shielded from light. Plates were read using a in a spectrofluorometer at an excitation wavelength of 360 nm and an emission wavelength of 460 nm. Values were expressed as relative fluorescent units (RFU).
The key to the maximal response data can be found below Table 2.
The third experiment was done to evaluate the specificity and selectivity of the test compound in another non-tumor cell that was derived from normal rat kidney tissue.

Row | SMILES | CC50 (H4IIE cells) [µM] | cellular GSH depleted (rat cardiomyocytes) | Predicted Ctox (C32 cells) [µM] | Caspase 3 Activity (Index/Dose): Dose (NRK cells; 6 HR) [µM] | Caspase 3 Activity (Index/Dose): Index (NRK cells; 6 HR) | Caspase 3 Activity (Index/Dose): Dose (NRK cells; 24 HR) [µM] | Caspase 3 Activity (Index/Dose): Index (NRK cells; 24 HR)
1 | COc1cccc2c1C(=O)c1c(O)c3c(c(O)c1C2=O)C[C@@](O)(C(=O)CO)C[C@@H]3O[C@H]1C[C@H](N)[C@H](O)[C@H](C)O1 [ADRIAMYCIN, Adriamycin] | 9 | More than 90% | – | – | – | – | –
2 | CC[C@@]1(O)C(=O)OCc2c1cc1n(c2=O)Cc2cc3ccccc3nc2-1 [CAMPTOTHECIN, Camptothecin] | – | – | 0.1 | 100 | 3 (40-60 = 3) | 300 | 10 (180-200 = 10)
